Values of other authors, collected in patent US20050287230A1, “Method of producing ginsenoside 20 (R)-Rh2 and composition of matter thereof” (priority 2004, published 2005).
Where two headings read alike, the source gives them in different places.

What was measured:
[1] = subcutaneous injection 10 mg/kg
[2] = test system: J744 macrophage
[3] = test system: HL60
[4] = test system: LAK cells; conditions: tumor patient
[5] = Stomach irrigation with 2 g/kg
[6] = target: rhTNF-a (Homo sapiens, UniProt P01375); conditions: external experiment
[7] = test system: B16 melanoma cells
[8] = test system: HRA cells; conditions: dosage-dependent
[9] = test system: Morris liver cancer, human cervical cancer, B16 malignant melanoma and Hela cells
[10] = test system: sarcoma 180; conditions: 5 mg/kg dosage
[11] = mouse, orally taken

rhTNF-a, sequence (P01375 77-233 limits assumed): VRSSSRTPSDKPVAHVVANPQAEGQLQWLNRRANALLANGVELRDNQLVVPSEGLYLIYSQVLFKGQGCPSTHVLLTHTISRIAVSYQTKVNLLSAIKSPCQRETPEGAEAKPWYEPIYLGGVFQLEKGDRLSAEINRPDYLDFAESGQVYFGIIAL

## C[C@H]1[C@H](C)CC[C@]2(C(=O)O)CC[C@]3(C)C(=CC[C@@H]4[C@@]5(C)CC[C@H](O)C(C)(C)[C@@H]5CC[C@]43C)[C@H]12 [Ursolic acid]
other
  solubility in water: insoluble
[1]
  serum gorge invert ammonia enzyme: can reduce
[2]; 50 μg/ml
  reversal of the inhibition function of MΦ: partially deteriorates
[2]; 100 μg/ml
  reversal of the inhibition function of MΦ: totally deteriorate

## CC(C)=CCC[C@@](C)(O)[C@H]1CC[C@]2(C)[C@@H]1[C@H](O)C[C@@H]1[C@@]3(C)CC[C@H](O)C(C)(C)[C@@H]3[C@@H](O[C@@H]3O[C@H](CO)[C@@H](O)[C@H](O)[C@H]3O)C[C@]12C [ginsenoside 20(R)-Rh1]
[3]
  inhibition of HL60 tumor strain: inhibit the human promyelcytic leukemia HL60 tumor strain significantly

## CC(C)=CCC[C@](C)(O[C@@H]1O[C@H](CO)[C@@H](O)[C@H](O)[C@H]1O)[C@H]1CC[C@]2(C)[C@@H]1[C@H](O)C[C@@H]1[C@@]3(C)CC[C@H](O)C(C)(C)[C@@H]3[C@@H](O[C@@H]3O[C@H](CO)[C@@H](O)[C@H](O)[C@H]3O[C@@H]3O[C@@H](C)[C@H](O)[C@@H](O)[C@H]3O)C[C@]12C [ginsenoside Re]
[4]
  level above which effect upon LAK activity appears: > 5 µg/mL

## CC(C)=CC[C@@H](O)C1=CC(=O)c2c(O)ccc(O)c2C1=O [Shikonin]
other
  solubility in water: insoluble
[5]
  death: no dead mouse

## CC(C)=CCC[C@](C)(O[C@@H]1O[C@H](CO[C@@H]2OC[C@H](O[C@@H]3OC[C@@H](O)[C@H](O)[C@H]3O)[C@H](O)[C@H]2O)[C@@H](O)[C@H](O)[C@H]1O)[C@H]1CC[C@]2(C)[C@@H]1[C@H](O)C[C@@H]1[C@@]3(C)CC[C@H](O[C@@H]4O[C@H](CO)[C@@H](O)[C@H](O)[C@H]4O[C@@H]4O[C@H](CO)[C@@H](O)[C@H](O)[C@H]4O)C(C)(C)[C@@H]3CC[C@]12C [ginsenoside-Ra1]
[6]
  increase of rhTNF-a activity: 134 times

## CC(C)=CCC[C@](C)(O)[C@H]1CC[C@]2(C)[C@@H]1[C@H](O)C[C@@H]1[C@@]3(C)CC[C@H](O)C(C)(C)[C@@H]3[C@@H](O[C@@H]3O[C@H](CO)[C@@H](O)[C@H](O)[C@H]3O)C[C@]12C [ginsenoside-Rh1]
[7]
  concentration that completely inhibits the proliferation: above 8.0 μg/ml

## CC(C)=CCC[C@](C)(O)[C@H]1CC[C@]2(C)[C@@H]1[C@H](O)C[C@@H]1[C@@]3(C)CC[C@H](O[C@@H]4O[C@H](CO)[C@@H](O)[C@H](O)[C@H]4O)C(C)(C)[C@@H]3CC[C@]12C [ginsenoside Rh2, ginseng dialcohol-3-O-β-D-glucopyranoside]
[8]
  effective range for inhibition of proliferation: 10˜100 μmol/L
[3]
  inhibition of HL60 tumor strain: inhibit the human promyelcytic leukemia HL60 tumor strain significantly
[3]; listed as ginsenoside-Rh2
  inhibition of HL60 tumor strain: significant effect
[9]; 2-10 μg/ml in culture solution
  inhibition effect on the proliferation: different degrees of inhibition effect
[9]; external experiment
  inhibition on the proliferation function: outstanding inhibition

## Lentinan
other
  solubility in water: almost indissoluble
[10]
  inhibition rate of anti-tumor: 97.5%
[11]
  acute toxicity LD50: > 1250 mg/kg
